According to the supplement of paper PMC10307832:

How the values were obtained:
Experiment in all cases: relative viability (nuclei count vs DMSO), 5 days (fraction); higher = more cells survive
[1] = compound: CCN1C(=O)C2=CC(=C(N=C2N(C1=O)C3CC3)N)C(=O)N + CC1(C)CCC(c2ccc(Cl)cc2)=C(CN2CCN(c3ccc(C(=O)NS(=O)(=O)c4ccc(N[C@H](CCN5CCOCC5)CSc5ccccc5)c(S(=O)(=O)C(F)(F)F)c4)cc3)CC2)C1 [Navitoclax] (partner 0.5 µM)
In short: (§1)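 After 5 days of treatment, lung cancer cells in 1536-well plates were fixed and stained in a single step (final 0.05% Triton X-100, 1% formaldehyde, 1 ug/ml Hoechst) and their nuclei counted on 4× images. Treatment had been applied by pin tool the day after seeding as one drug alone or as a fixed anchor-drug dose with five library-drug doses (not always all listed) in √10 steps. Relative viability is the nuclei count of treated wells divided by that of vehicle wells, and values are medians of duplicate plates.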

[2] = compound: CCN1C(=O)C2=CC(=C(N=C2N(C1=O)C3CC3)N)C(=O)N + O=C(c1cc(Cc2n[nH]c(=O)c3ccccc23)ccc1F)N1CCN(C(=O)C2CC2)CC1 [Olaparib] (partner 8 µM)
In short: as §1

[3] = compound: CCN1C(=O)C2=CC(=C(N=C2N(C1=O)C3CC3)N)C(=O)N + Cc1cc(Nc2cc(N3CCN(C)CC3)nc(Sc3ccc(NC(=O)C4CC4)cc3)n2)n[nH]1 [Tozasertib] (partner 0.1 µM)
In short: as §1

[4] = compound: CCN1C(=O)C2=CC(=C(N=C2N(C1=O)C3CC3)N)C(=O)N + CC(=O)Nc1cccc(-n2c(=O)n(C3CC3)c(=O)c3c(Nc4ccc(I)cc4F)n(C)c(=O)c(C)c32)c1 [Trametinib] (partner 0.02 µM)
In short: as §1

[5] = compound: CCN1C(=O)C2=CC(=C(N=C2N(C1=O)C3CC3)N)C(=O)N + COc1cccc2cc(-c3nc([C@H]4CC[C@H](C(=O)O)CC4)n4ncnc(N)c34)[nH]c12 [OSI-027] (partner 0.5 µM)
In short: as §1

Cell Line | relative viability ([1]; first compound 0.253 µM) | relative viability ([1]; first compound 0.8 µM) | relative viability ([1]; first compound 2.53 µM) | relative viability ([1]; first compound 8 µM) | relative viability ([2]; first compound 0.253 µM) | relative viability ([2]; first compound 0.8 µM) | relative viability ([2]; first compound 2.53 µM) | relative viability ([2]; first compound 8 µM) | relative viability ([3]; first compound 0.253 µM) | relative viability ([3]; first compound 0.8 µM) | relative viability ([3]; first compound 2.53 µM) | relative viability ([3]; first compound 8 µM) | relative viability ([4]; first compound 0.253 µM) | relative viability ([4]; first compound 0.8 µM) | relative viability ([4]; first compound 2.53 µM) | relative viability ([4]; first compound 8 µM) | relative viability ([5]; first compound 0.253 µM) | relative viability ([5]; first compound 0.8 µM) | relative viability ([5]; first compound 2.53 µM) | relative viability ([5]; first compound 8 µM)
NCI-H1734 | 0.737 | 0.813 | 0.778 | 0.888 | 0.672 | 0.695 | 0.579 | 0.675 | 0.373 | 0.278 | 0.233 | 0.25 | 0.742 | 0.593 | 0.609 | 0.74 | 0.734 | 0.554 | 0.531 | 0.596
NCI-H1755 | 1.03 | 0.936 | 0.98 | 0.938 | 0.908 | 0.872 | 0.831 | 0.843 | 0.567 | 0.515 | 0.514 | 0.528 | 0.771 | 0.762 | 0.746 | 0.716 | 0.744 | 0.749 | 0.703 | 0.72
NCI-H1793 | 0.701 | 0.385 | – | 0.404 | 0.921 | 0.731 | 0.851 | 0.875 | – | 0.375 | 0.265 | 0.298 | 0.428 | 0.387 | 0.433 | 0.445 | – | 0.294 | 0.212 | 0.239
NCI-H1915 | 0.738 | 0.799 | 0.752 | 0.711 | 0.271 | 0.284 | 0.261 | 0.286 | 0.451 | 0.33 | 0.393 | 0.416 | 0.297 | 0.294 | 0.305 | 0.337 | 0.636 | 0.638 | 0.6 | 0.679
NCI-H1944 | 1.02 | 1.04 | 0.978 | 1.02 | 0.4 | 0.411 | 0.374 | 0.437 | 0.26 | 0.266 | 0.247 | 0.279 | 0.451 | 0.445 | 0.353 | 0.427 | 0.4 | 0.399 | 0.473 | 0.378
NCI-H1975 | 1.31 | 1.06 | 1.19 | 1.02 | 0.747 | 0.82 | 0.734 | 0.785 | 0.738 | 0.737 | 0.608 | 0.331 | 0.343 | 0.335 | 0.335 | 0.336 | 0.809 | 0.697 | 0.604 | 0.536
NCI-H1993 | 0.994 | 0.875 | 0.797 | 0.757 | 1.57 | 0.75 | 1.05 | 1.08 | 0.6 | 0.569 | 0.537 | 0.512 | 0.587 | 0.576 | 0.511 | 0.491 | 0.578 | 0.558 | 0.523 | 0.534
NCI-H2009 | 1.15 | 1.14 | 1.11 | 1.08 | 0.688 | 0.665 | 0.667 | 0.71 | 0.732 | 0.751 | 0.697 | 0.809 | 0.274 | 0.271 | 0.262 | 0.281 | 0.634 | 0.622 | 0.619 | 0.621
NCI-H2023 | 0.946 | 1.02 | 0.955 | 0.95 | 0.463 | 0.477 | 0.451 | 0.487 | 0.402 | 0.32 | 0.241 | 0.233 | 0.587 | 0.61 | 0.503 | 0.589 | 0.449 | 0.365 | 0.386 | 0.34
NCI-H2085 | 1.15 | 1.1 | 1.2 | 0.997 | 0.835 | 0.815 | 0.72 | 0.814 | 0.85 | 0.726 | 0.867 | 0.613 | 0.588 | 0.538 | 0.52 | 0.428 | 0.728 | 0.691 | 0.738 | 0.684
NCI-H2087 | 0.94 | 1.11 | 0.994 | 0.941 | 0.638 | 0.82 | 0.643 | 0.585 | 0.258 | 0.249 | 0.214 | 0.266 | 0.228 | 0.184 | 0.217 | 0.193 | 0.437 | 0.671 | 0.636 | 0.55
NCI-H2126 | 0.86 | 0.884 | 0.736 | 0.775 | 0.876 | 0.932 | 0.887 | 0.939 | 0.86 | 0.798 | 0.801 | 0.828 | 0.574 | 0.583 | 0.56 | 0.554 | 0.598 | 0.541 | 0.819 | 0.747
